Measurements: patent US8722849B2, “Polypeptides” (Novo Nordisk A/S, priority 2011, dated 2014)
Values after ≈ are worked out from the molar mass of the structure shown. Where two headings read alike, the source gives them in different places. Starred links: 1 amine or outer side, 2 acyl side, 3 side chain; linkers in the order of their positions; H or OH if unused. Positions of bridges follow the written chain, without caps; N, C: chain ends. Residues, ends and D or L forms follow the SMILES beside them. *: point of attachment. C20 diacid = O=C(O)CCCCCCCCCCCCCCCCCCC(=O)*; γGlu = O=C(O)[C@H](CCC(=O)[*:2])N[*:1]

How the values were obtained:
[1] = molecular target: T1, rat calcitonin (a) receptor (Rattus norvegicus, UniProt P32214); assay: Assay (II)b functional cAMP FlashPlate assay, rat calcitonin receptor; type: cell-based; conditions: Table 11; read-out: CTa receptor rat EC50
T1 construct: expressed in transfected cells; host or cells: BHK tk'ts 13
T1 sequence (P32214 25-479 isoform P32214-2 limits assumed): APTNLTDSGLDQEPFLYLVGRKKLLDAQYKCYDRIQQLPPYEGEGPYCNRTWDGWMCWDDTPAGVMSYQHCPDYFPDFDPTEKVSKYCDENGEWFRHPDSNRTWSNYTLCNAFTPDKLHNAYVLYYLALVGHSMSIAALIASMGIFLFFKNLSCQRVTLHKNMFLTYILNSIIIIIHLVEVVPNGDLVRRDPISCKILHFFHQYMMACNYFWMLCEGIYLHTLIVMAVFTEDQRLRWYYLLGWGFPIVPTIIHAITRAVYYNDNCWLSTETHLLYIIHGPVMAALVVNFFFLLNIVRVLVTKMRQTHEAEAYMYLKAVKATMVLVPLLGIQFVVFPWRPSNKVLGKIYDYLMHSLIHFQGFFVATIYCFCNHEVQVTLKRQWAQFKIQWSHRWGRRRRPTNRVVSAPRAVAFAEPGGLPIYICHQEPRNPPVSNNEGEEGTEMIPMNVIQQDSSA
Source text: (§1) Assay (II)b—Rat Calcitonin and Rat Amylin Receptor Assays
(§2) Activation of calcitonin and amylin (coexpression of calcitonin receptor and receptor activity modifying proteins (RAMP)) receptors lead to increased intracellular concentrations of cAMP. In order to quantify the cAMP levels in transiently transfected cells the Adenylyl Cyclase Activation FlashPlate® Assay from […] was used. The basic principle of the FlashPlate® Assay is a competition between radioactive and non-radioactive cAMP generated by the cells for a fixed number of binding sites.
(§3) Construction of rat calcitonin(a)—and rat amylin 3(a)-receptor cells.
(§4) BHK tk'ts 13 cells were transiently transfected with either rat calcitonin (a) receptor or amylin 3 (a) receptor (rat calcitonin(a) receptor+ rat RAMP3) using FuGENE® 6 (ROCHE), according to the manufacturers recommendations.
(§5) 24 hours after transient transfection the cells (rat calcitonin(a)—or rat amylin 3(a)—receptor cells) were added (100.000 cells/well) to the 96 well FlashPlates® with samples or standard in FlashPlate stimulation buffer with IBMX and incubated for 30 min. Detection mix was created according to manufacturers protocol and scintillation measured after 3 h of incubation on TopCounter™ (Packard).

[2] = molecular target: T2, rat amylin 3(a) receptor (rat calcitonin(a) receptor + rat RAMP3) (Rattus norvegicus, UniProt P32214+Q9JJ73); assay: Assay (II)b functional cAMP FlashPlate assay, rat amylin receptor; type: cell-based; conditions: Table 11
T2 construct: expressed in transfected cells; host or cells: BHK tk'ts 13
T2 sequence (P32214 25-479 isoform P32214-2 limits assumed): T1 sequence (P32214 25-479 isoform P32214-2 limits assumed)
T2 sequence (Q9JJ73 23-147 partner): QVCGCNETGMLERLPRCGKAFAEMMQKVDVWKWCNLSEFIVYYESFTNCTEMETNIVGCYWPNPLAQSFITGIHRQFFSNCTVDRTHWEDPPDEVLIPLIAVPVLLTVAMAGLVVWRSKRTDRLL
Source text: as §1, §2, §3, §4, §5

[3] = Assay (IV) determination of solubility; type: physicochemical
In short: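 Polypeptide in water (~500 nmol/ml) mixed 1:1 with 100 mM glycylglycine (pH 3.0–5.0) or bistrispropane (pH 6.0–8.0) buffers. Held 18 hours at room temperature, then centrifuged. Polypeptide remaining in solution quantified by HPLC.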

[4] = molecular target: T3, human amylin receptor (amylin 3(a) receptor: human calcitonin receptor + RAMP-3) (Homo sapiens, UniProt O60896+P30988); assay: Assay (II)a functional CRE-luciferase assay, human amylin receptor; type: cell-based
T3 construct: expressed in transfected cells; host or cells: BHK570
T3 sequence (P30988 25-474): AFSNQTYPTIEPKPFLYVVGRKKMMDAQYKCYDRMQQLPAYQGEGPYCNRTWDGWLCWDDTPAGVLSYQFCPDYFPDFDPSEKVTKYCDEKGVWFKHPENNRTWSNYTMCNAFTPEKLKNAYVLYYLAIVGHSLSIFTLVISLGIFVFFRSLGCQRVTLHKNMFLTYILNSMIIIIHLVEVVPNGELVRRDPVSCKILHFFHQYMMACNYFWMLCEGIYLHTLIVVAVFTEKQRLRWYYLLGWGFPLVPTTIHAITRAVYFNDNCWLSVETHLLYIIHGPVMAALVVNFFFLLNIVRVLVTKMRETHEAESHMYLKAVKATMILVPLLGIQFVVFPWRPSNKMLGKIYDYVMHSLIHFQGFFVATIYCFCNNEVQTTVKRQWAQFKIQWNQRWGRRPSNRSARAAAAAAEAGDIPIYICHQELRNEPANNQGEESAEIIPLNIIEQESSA
T3 sequence (O60896 24-148 partner): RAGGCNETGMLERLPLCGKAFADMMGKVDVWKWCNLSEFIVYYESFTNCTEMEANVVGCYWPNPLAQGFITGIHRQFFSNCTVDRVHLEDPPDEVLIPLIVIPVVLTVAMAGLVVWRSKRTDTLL

[5] = molecular target: T4, human calcitonin receptor (Homo sapiens, UniProt P30988); assay: Assay (II)a functional CRE-luciferase assay, human calcitonin receptor; type: cell-based; conditions: Table 7; human calcitonin (CTa) receptor
T4 construct: expressed in transfected cells; host or cells: BHK570
T4 sequence (P30988 25-474): T3 sequence (P30988 25-474)

food intake = assay: Assay (I) efficacy testing on appetite (food intake), ad libitum fed rat model; type: in vivo, Sprague Dawley (SD) rats; conditions: 3 nmol/kg
In short: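 Sprague Dawley rats (200–250 g), single-housed under reversed light cycle with free food and water, got one ip, po or sc dose of 0.01–3 mg/kg just before lights-off. Individual food intake recorded hourly for 7 h, then at 24 h and sometimes 48 h; groups of 5–8, Grubbs outliers excluded.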

[6] = bistrispropane buffer, pH 6, pH 6.0, read-out: Solubility pH 6.0
[7] = bistrispropane buffer, pH 6.5, pH 6.5, read-out: Solubility pH 6.5
[8] = bistrispropane buffer, pH 7, pH 7.0, 18 hours at room temperature, Table 3, read-out: Solubility pH 7.0
[9] = bistrispropane buffer, pH 7, pH 7.0, read-out: Solubility pH 7.0
[10] = bistrispropane buffer, pH 7.5, pH 7.5, read-out: Solubility pH 7.5
[11] = bistrispropane buffer, pH 8, pH 8.0, read-out: Solubility pH 8.0
[12] = glycylglycine buffer, pH 3, pH 3.0, read-out: Solubility pH 3.0
[13] = glycylglycine buffer, pH 4, pH 4.0, 18 hours at room temperature, Table 2, read-out: Solubility pH 4.0
[14] = glycylglycine buffer, pH 4, pH 4.0, read-out: Solubility pH 4.0
[15] = glycylglycine buffer, pH 5, pH 5.0, read-out: Solubility pH 5.0
[16] = Table 2, BHK amylin 3(a)-receptor/CRE-luc cells

Structure (SMILES): CC[C@H](C)[C@H](NC(=O)[C@@H]1CCCN1C(=O)CNC(=O)[C@H](Cc1ccccc1)NC(=O)[C@H](CC(N)=O)NC(=O)[C@H](CC(N)=O)NC(=O)[C@H](CO)NC(=O)[C@H](CO)NC(=O)[C@H](Cc1c[nH]cn1)NC(=O)[C@H](Cc1cnc[nH]1)NC(=O)[C@H](CC(C)C)NC(=O)[C@H](Cc1ccccc1)NC(=O)[C@H](CCC(=O)O)NC(=O)[C@H](C)NC(=O)[C@H](CC(C)C)NC(=O)[C@H](CCCNC(=N)N)NC(=O)[C@H](CCC(N)=O)NC(=O)[C@@H](NC(=O)[C@H](C)NC(=O)[C@@H]1CSSC[C@H](NC(=O)[C@H](Cc2cnc[nH]2)NC(=O)CC[C@H](NC(=O)CCCCCCCCCCCCCCCCCCC(=O)O)C(=O)O)C(=O)N[C@@H](CC(N)=O)C(=O)N[C@@H]([C@@H](C)O)C(=O)N[C@@H](C)C(=O)N[C@@H]([C@@H](C)O)C(=O)N1)[C@@H](C)O)C(=O)N[C@@H](CC(C)C)C(=O)N1CCC[C@H]1C(=O)N1CCC[C@H]1C(=O)N[C@H](C(=O)N[C@@H](CC(N)=O)C(=O)N[C@H](C(=O)NCC(=O)N[C@@H](CO)C(=O)N[C@@H](CC(N)=O)C(=O)N[C@H](C(=O)N1CCC[C@H]1C(N)=O)[C@@H](C)O)C(C)C)[C@@H](C)O [Example 84, N-alpha-[(S)-4-Carboxy-4-(19-carboxynonadecanoylamino)butyryl]-[His1,Glu14,His17,Pro37]-pramlintide] ({C20 diacid-γGlu}-HCNTATCATQRLAEFLHHSSNNFGPILPPTNVGSNTP-NH2; disulfide 2-7)
- EC50 [1]: 0.109 nM
- EC50 [2]: 0.121 nM
- solubility at 18 h [3, 6]: > 200 µM
- solubility at 18 h [3, 7]: > 200 µM
- solubility at 18 h [3, 8]: > 200 µM
- solubility at 18 h ([3]; bistrispropane buffer, pH 7, pH 7.0, Table 8, read-out: Solubility pH 7.0): > 200 µM
- solubility at 18 h [3, 9]: > 200 µM
- solubility at 18 h [3, 10]: > 200 µM
- solubility at 18 h [3, 11]: > 200 µM
- solubility at 18 h [3, 12]: > 200 µM
- solubility at 18 h [3, 13]: > 200 µM
- solubility at 18 h [3, 14]: > 200 µM
- solubility at 18 h [3, 15]: > 200 µM
- EC50 [4, 16]: 0.0925 nM
- EC50 [5]: 0.067 nM

Structure (SMILES): CC[C@H](C)[C@H](NC(=O)[C@@H]1CCCN1C(=O)CNC(=O)[C@H](Cc1ccccc1)NC(=O)[C@H](CC(N)=O)NC(=O)[C@H](CC(N)=O)NC(=O)[C@H](CO)NC(=O)[C@H](CO)NC(=O)[C@H](CCCNC(=N)N)NC(=O)[C@H](Cc1c[nH]cn1)NC(=O)[C@H](CC(C)C)NC(=O)[C@H](Cc1ccccc1)NC(=O)[C@H](CCC(=O)O)NC(=O)[C@H](C)NC(=O)[C@H](CC(C)C)NC(=O)[C@H](CCCNC(=N)N)NC(=O)[C@H](CCC(N)=O)NC(=O)[C@@H](NC(=O)[C@H](C)NC(=O)[C@@H]1CSSC[C@H](NC(=O)CC[C@H](NC(=O)CCCCCCCCCCCCCCCCCCC(=O)O)C(=O)O)C(=O)NCC(=O)N[C@@H]([C@@H](C)O)C(=O)N[C@@H](C)C(=O)N[C@@H]([C@@H](C)O)C(=O)N1)[C@@H](C)O)C(=O)N[C@@H](CC(C)C)C(=O)N1CCC[C@H]1C(=O)N1CCC[C@H]1C(=O)N[C@H](C(=O)N[C@@H](CCC(=O)O)C(=O)N[C@H](C(=O)NCC(=O)N[C@@H](CO)C(=O)NCC(=O)N[C@H](C(=O)N[C@@H](Cc1ccc(O)cc1)C(N)=O)[C@@H](C)O)C(C)C)[C@@H](C)O [Example 3, N-alpha-[(S)-4-Carboxy-4-(19-carboxynonadecanoylamino)butyryl]-[des1,Gly3,Glu14,His17,Arg18,Glu31,Gly35]-pramlintide] ({C20 diacid-γGlu}-CGTATCATQRLAEFLHRSSNNFGPILPPTEVGSGTY-NH2; disulfide 1-6 (inferred))
- solubility at 18 h [3, 6]: > 200 µM
- solubility at 18 h [3, 7]: > 200 µM
- solubility at 18 h [3, 8]: > 200 µM
- solubility at 18 h [3, 9]: > 200 µM
- solubility at 18 h [3, 10]: > 200 µM
- solubility at 18 h [3, 11]: > 200 µM
- solubility at 18 h [3, 12]: > 200 µM
- solubility at 18 h [3, 13]: > 200 µM
- solubility at 18 h [3, 14]: > 200 µM
- solubility at 18 h [3, 15]: 68 µM (≈ 289 µg/mL)
- Food intake reduction 0-24 h 3 nmol/kg (%) (food intake; 0-24 h): 37%
- Food intake reduction 24-48 h 3 nmol/kg (%) (food intake; 24-48 h): 32%
- EC50 [4, 16]: 0.164 nM
- EC50 [5]: 0.222 nM

Structure (SMILES): CC(C)C[C@H](NC(=O)[C@H](CCCNC(=N)N)NC(=O)[C@H](CCC(N)=O)NC(=O)[C@@H](NC(=O)[C@H](C)NC(=O)[C@@H]1CSSC[C@H](NC(=O)[C@H](CCC(=O)O)NC(=O)CC[C@H](NC(=O)CCCCCCCCCCCCCCCCCCC(=O)O)C(=O)O)C(=O)NCC(=O)N[C@@H]([C@@H](C)O)C(=O)N[C@@H](C)C(=O)N[C@@H]([C@@H](C)O)C(=O)N1)[C@@H](C)O)C(=O)N[C@@H](C)C(=O)N[C@@H](CCC(=O)O)C(=O)N[C@@H](Cc1ccccc1)C(=O)N[C@@H](CC(C)C)C(=O)N[C@H](C(=O)N[C@@H](CCCNC(=N)N)C(=O)N[C@@H](CO)C(=O)N[C@@H](CO)C(=O)N[C@@H](CO)C(=O)N[C@@H](CO)C(=O)N[C@@H](Cc1ccccc1)C(=O)NCC(=O)N[C@@H](C)C(=O)N1CCC[C@H]1C(=O)N[C@@H](CC(C)C)C(=O)N[C@@H](CO)C(=O)N[C@@H](CO)C(=O)N[C@H](C(=O)N[C@@H](CCC(=O)O)C(=O)N[C@H](C(=O)NCC(=O)N[C@@H](CO)C(=O)N[C@@H](CCCNC(=N)N)C(=O)N[C@H](C(=O)N[C@@H](Cc1ccc(O)cc1)C(N)=O)[C@@H](C)O)C(C)C)[C@@H](C)O)C(C)C [Example 24, N-alpha-[(S)-4-Carboxy-4-(19-carboxynonadecanoylamino)butyryl]-[Glu1,Gly3,Glu14,Arg18,Ser21,Ser22,Ala25,Pro26,Ser28,Ser29,Glu31,Arg35]-pramlintide] ({C20 diacid-γGlu}-ECGTATCATQRLAEFLVRSSSSFGAPLSSTEVGSRTY-NH2; disulfide 2-7 (inferred); C-terminus assumed)
- EC50 [1]: 1.75 nM
- EC50 [2]: 4.51 nM
- EC50 ([4]; Table 6, human amylin receptor): 1.44 nM
- EC50 [5]: 0.672 nM
